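All cell lines were grown in 96-well plates and treated with compound for 48 hours. TGI is the concentration that stops growth completely.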
What was measured:
Experiment in all cases: inhibition of tumour cell growth, NCI panel, 48 h
ACHN renal = test system: ACHN renal
BT-549 breast = test system: BT-549 breast
MCF7 breast = test system: MCF7 breast
NCI-H460 lung = test system: NCI-H460 lung
NCI-H522 lung = test system: NCI-H522 lung
SNB-75 CNS = test system: SNB-75 CNS
SW-620 colon = test system: SW-620 colon
T-47D breast = test system: T-47D breast
TK-10 renal = test system: TK-10 renal
U251 CNS = test system: U251 CNS
UACC-257 melanoma = test system: UACC-257 melanoma
UO-31 renal = test system: UO-31 renal

Row | SMILES | TGI (ACHN renal) | TGI (BT-549 breast) | TGI (MCF7 breast) | TGI (NCI-H460 lung) | TGI (NCI-H522 lung) | TGI (SNB-75 CNS) | TGI (SW-620 colon) | TGI (T-47D breast) | TGI (TK-10 renal) | TGI (U251 CNS) | TGI (UACC-257 melanoma) | TGI (UO-31 renal)
1 | Cc1ccc(C2SC(N)=Nc3c2c(C)nn3C(=O)c2ccncc2)cc1 (centres undefined) | > 10 µM | > 10 µM | > 10 µM | > 10 µM | > 10 µM | > 10 µM | > 10 µM | > 10 µM | > 10 µM | > 10 µM | > 10 µM | –
2 | COc1ccc(-c2nc3ccc(C)cc3o2)c(OC)c1 | > 100 µM | 67.1 µM | > 100 µM | 65.6 µM | 39.2 µM | 54.4 µM | > 86 µM | > 96.1 µM | 76.5 µM | 65 µM | 46.5 µM | 58.1 µM
3 | O=[N+]([O-])c1cc(Cl)ccc1S(=O)(=O)c1ccccc1 | > 100 µM | > 100 µM | > 100 µM | > 100 µM | > 100 µM | > 100 µM | > 100 µM | > 100 µM | > 100 µM | > 100 µM | > 100 µM | > 100 µM
4 | COc1cc2cc(C(=O)N3CC(COS(C)(=O)=O)c4c3cc([N+](=O)[O-])c3ccccc43)[nH]c2c(OC)c1OC (centres undefined) | > 31.6 µM | > 31.6 µM | > 31.6 µM | > 31 µM | > 31.6 µM | > 31.6 µM | > 31.6 µM | > 31.6 µM | > 31.6 µM | > 31.6 µM | > 31.6 µM | > 31.6 µM
5 | CC1C(c2ccccc2O)c2cc3c(cc2OC1N1CCCC1)OCO3 (centres undefined) | > 100 µM | > 100 µM | 67.4 µM | 32.4 µM | 70.3 µM | 88 µM | 44.4 µM | > 100 µM | > 100 µM | > 100 µM | 92.5 µM | > 100 µM
6 | CNC(=O)N(CCC#N)CCN(CCN(C(=O)NC)c1ccccc1)C(=O)NC | > 100 µM | > 100 µM | > 100 µM | > 100 µM | > 100 µM | > 100 µM | > 100 µM | > 100 µM | > 100 µM | > 100 µM | > 100 µM | > 100 µM
7 | COC(=O)[C@]1(c2cc3ccccc3n2S(=O)(=O)c2ccccc2)CC2CCC1NC2 (some centres undefined) | 51.3 µM | 32.9 µM | 28 µM | 26.9 µM | 30.6 µM | 30.5 µM | 31.3 µM | 27.2 µM | > 100 µM | 26.4 µM | 32 µM | 22.3 µM
8 | CC(=O)OC1CC(OC2C(O)CC(OC3C(O)CC(OC4CCC5(C)C(CCC6C5CC(O)C5(C)C(C7=CC(=O)OC7)CCC65O)C4)OC3C)OC2C)OC(C)C1O (centres undefined) (tested in a mixture with another compound) | 0.0818 µM | 0.201 µM | 0.216 µM | 0.0368 µM | 0.0275 µM | 0.191 µM | 0.268 µM | 0.41 µM | 0.114 µM | 0.0801 µM | 0.305 µM | 0.169 µM
9 | CCOC(=O)Cn1nc2ccc(Nc3nc4ccccc4nc3C(=O)OCC)cc2n1 | > 100 µM | > 100 µM | > 100 µM | > 100 µM | > 100 µM | 37.1 µM | > 100 µM | > 100 µM | > 100 µM | > 100 µM | > 100 µM | > 100 µM
10 | CC(C)C1OCC(CO)CO1 (centres undefined) | > 100 µM | > 100 µM | > 100 µM | > 100 µM | > 100 µM | > 100 µM | > 100 µM | > 100 µM | > 100 µM | > 100 µM | > 100 µM | > 100 µM
11 | CC(=O)Oc1ccc(-c2cc3ccccc3oc2=O)cc1OC(C)=O | > 100 µM | > 100 µM | > 100 µM | > 100 µM | > 100 µM | > 100 µM | > 100 µM | > 100 µM | > 100 µM | > 100 µM | > 100 µM | > 100 µM
12 | CCCNc1[nH]c(C(C)=O)c(N)c1C(=S)Nc1ccccc1 | > 100 µM | 68.4 µM | 45.4 µM | > 100 µM | > 100 µM | > 100 µM | > 100 µM | > 100 µM | > 100 µM | > 100 µM | > 100 µM | > 100 µM
13 | Cc1cccc(C)c1NC(=S)/N=C/C1=C(O)c2ccccc2C1=O | > 100 µM | > 28.8 µM | > 100 µM | > 100 µM | 17.9 µM | 51.4 µM | > 100 µM | > 100 µM | > 81.2 µM | > 100 µM | > 88.5 µM | > 86.1 µM
14 | Cn1ncc2c(NCCc3ccccc3)nc(Cl)nc21 | > 100 µM | 78.4 µM | > 100 µM | 31.1 µM | > 100 µM | 76.1 µM | 89.1 µM | 79.3 µM | 65 µM | > 100 µM | 12.3 µM | 73 µM
15 | COC(=O)C(Cc1ccccc1)NS(=O)(=O)c1ccc(-c2c3nc(c(-c4ccc(S(=O)(=O)NC(Cc5ccccc5)C(=O)OC)cc4)c4ccc([nH]4)c(-c4ccc(S(=O)(=O)NC(Cc5ccccc5)C(=O)OC)cc4)c4nc(c(-c5ccc(S(=O)(=O)NC(Cc6ccccc6)C(=O)OC)cc5)c5ccc2[nH]5)C=C4)C=C3)cc1 (centres undefined) | > 100 µM | > 100 µM | > 100 µM | > 100 µM | > 100 µM | 31.5 µM | > 100 µM | > 100 µM | > 100 µM | > 100 µM | > 100 µM | > 100 µM
16 | C=CCC1(O)c2cccc(O)c2C(=O)c2c(O)cccc21 | > 100 µM | 60.7 µM | > 100 µM | > 100 µM | 75.8 µM | 75.2 µM | > 100 µM | 78.3 µM | > 100 µM | 69.1 µM | 68.3 µM | > 100 µM
17 | Cc1ccc(S(=O)(=O)C2=c3ncccc3=C3C(=O)c4ccccc4C(=O)C32)cc1 (centres undefined) | > 95.8 µM | > 88.6 µM | > 100 µM | > 56.9 µM | 85.3 µM | > 100 µM | > 100 µM | > 100 µM | > 71.3 µM | > 100 µM | > 100 µM | > 100 µM
18 | Cc1cc(S(=O)(=O)Nc2nc(N)n(C)n2)c(S)cc1Cl | > 10 µM | > 10 µM | > 10 µM | > 10 µM | > 10 µM | > 10 µM | > 10 µM | > 10 µM | > 10 µM | > 10 µM | > 10 µM | > 10 µM
19 | CCNC1CC(C(C)(C)NCC)CC=C1C (centres undefined) | – | > 100 µM | > 100 µM | > 100 µM | > 100 µM | > 100 µM | > 100 µM | > 100 µM | > 100 µM | > 100 µM | > 100 µM | > 100 µM
20 | COC(=O)[C@]1(c2cc3ccccc3[nH]2)CC2CN(CC(=O)N(C)OC)C1C1OC(C)(C)OC21 (some centres undefined) | > 100 µM | > 100 µM | > 100 µM | > 100 µM | > 100 µM | > 100 µM | > 100 µM | > 100 µM | > 100 µM | > 100 µM | > 100 µM | > 100 µM
21 | CS(=O)(=O)C(=Cc1ccccc1Cl)S(C)(=O)=O | > 100 µM | > 100 µM | > 100 µM | > 100 µM | > 100 µM | > 100 µM | > 100 µM | > 100 µM | > 100 µM | > 100 µM | > 100 µM | > 100 µM
22 | CC(C)(C)OC(=O)C(C1NC(C(=O)O)C(C)(C)S1)N1C(=O)c2ccccc2C1=O (centres undefined) | > 100 µM | > 100 µM | > 100 µM | > 100 µM | > 100 µM | > 100 µM | > 100 µM | > 100 µM | > 100 µM | > 100 µM | > 100 µM | > 100 µM
23 | CC[n+]1[b-](C(C)(C)C)n(/N=C(\C)C(C)(C)C)[b-](C(C)(C)C)[n+]1CC | > 100 µM | > 100 µM | > 100 µM | > 100 µM | > 100 µM | > 100 µM | > 100 µM | > 100 µM | > 100 µM | > 100 µM | > 100 µM | > 100 µM
24 | COc1ccc(OC)c(C2CCc3cnc4nc(N)nc(N)c4c3C2)c1 (centres undefined) | > 100 µM | > 100 µM | > 100 µM | > 100 µM | > 100 µM | 50.1 µM | > 100 µM | > 100 µM | > 100 µM | > 100 µM | > 100 µM | 85.3 µM
25 | Nc1nc(Cl)c2ncn(Cc3ccccc3CCl)c2n1 | 22 µM | 22.9 µM | 24.3 µM | 36.8 µM | 9.41 µM | 23.8 µM | 11.8 µM | 83.9 µM | 36.7 µM | 13.4 µM | 38.2 µM | 45 µM
26 | CC[C@H](CCCCC1CC[C@@H]2CC(=O)C[C@H]12)OC (some centres undefined) | > 100 µM | > 100 µM | > 100 µM | > 100 µM | > 100 µM | > 100 µM | > 100 µM | > 100 µM | > 100 µM | > 100 µM | > 100 µM | > 100 µM
27 | COc1cc2c(cc1OC)-c1cc3ccccc3c(=O)n1CCC2 | > 100 µM | 89.2 µM | > 89.5 µM | 11.2 µM | 74.9 µM | > 90.3 µM | > 87.9 µM | 68.9 µM | > 100 µM | > 65.7 µM | > 86.1 µM | 61.1 µM
28 | COc1cc(/C=C2\NC(=O)N(/C=C3\C(=O)Oc4ccccc4C3=O)C2=O)ccc1O | > 100 µM | > 100 µM | > 100 µM | > 100 µM | > 100 µM | 77 µM | > 100 µM | > 100 µM | > 100 µM | > 100 µM | > 100 µM | > 100 µM
